In ChEMBL document CHEMBL1909046, “DrugMatrix in vitro pharmacology data”:

What was measured:
[1] = biological target: T1, Alpha-2A adrenergic receptor (Homo sapiens, UniProt P08913); format: cell membranes, Sf9, Membrane; details: sf9; note: in other assays of this panel Not Active means under 50% inhibition at 10 µM
T1 sequence (P08913 whole entry): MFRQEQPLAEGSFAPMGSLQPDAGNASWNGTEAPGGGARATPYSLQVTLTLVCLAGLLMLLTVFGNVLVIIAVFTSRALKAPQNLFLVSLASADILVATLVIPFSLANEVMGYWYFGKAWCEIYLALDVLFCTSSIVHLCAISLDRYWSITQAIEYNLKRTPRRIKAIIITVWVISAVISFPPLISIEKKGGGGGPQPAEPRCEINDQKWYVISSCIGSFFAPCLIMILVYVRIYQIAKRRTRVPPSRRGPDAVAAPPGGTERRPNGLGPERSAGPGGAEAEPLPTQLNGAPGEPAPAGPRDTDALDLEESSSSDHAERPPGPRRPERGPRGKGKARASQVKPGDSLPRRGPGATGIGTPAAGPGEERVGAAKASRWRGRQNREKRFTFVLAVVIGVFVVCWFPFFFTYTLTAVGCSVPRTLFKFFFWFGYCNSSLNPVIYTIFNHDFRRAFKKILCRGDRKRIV

[2] = biological target: Carbonic anhydrase 2 (Homo sapiens, UniProt P00918); assay: DRUGMATRIX: Carbonic Anhydrase II enzyme inhibition (substrate: 4-Nitrophenyl acetate (4-NPA)); format: tissue-based, Erythrocyte; details: erythrocyte; Not Active = under 50% inhibition at 10 µM
[3] = biological target: T2, Cholecystokinin receptor type A (Homo sapiens, UniProt P32238); format: cell membranes, Membrane; details: 1321-n1; note: in other assays of this panel Not Active means under 50% inhibition at 10 µM
T2 sequence (P32238 whole entry): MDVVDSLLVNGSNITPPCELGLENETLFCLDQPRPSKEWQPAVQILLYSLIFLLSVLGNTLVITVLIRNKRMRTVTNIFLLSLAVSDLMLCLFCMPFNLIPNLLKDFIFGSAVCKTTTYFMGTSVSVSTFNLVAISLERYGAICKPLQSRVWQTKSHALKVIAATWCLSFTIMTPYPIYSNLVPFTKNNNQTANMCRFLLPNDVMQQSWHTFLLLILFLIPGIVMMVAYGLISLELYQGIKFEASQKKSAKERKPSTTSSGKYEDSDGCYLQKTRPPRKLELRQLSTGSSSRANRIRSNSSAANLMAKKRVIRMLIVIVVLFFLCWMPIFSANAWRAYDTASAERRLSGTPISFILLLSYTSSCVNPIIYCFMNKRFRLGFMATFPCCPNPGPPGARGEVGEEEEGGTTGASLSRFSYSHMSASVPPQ

[4] = biological target: D(1A) dopamine receptor (Homo sapiens, UniProt P21728); assay: DRUGMATRIX: Dopamine D1 radioligand binding (ligand: [3H] SCH-23390); format: cell membranes, CHO, Membrane; details: cho; Not Active = under 50% inhibition at 10 µM
[5] = DRUGMATRIX: Glutamate, NMDA, Phencyclidine radioligand binding (ligand: [3H] TCP); format: cell membranes, Rattus norvegicus, Wistar, Cerebral cortex, Membrane; details: Not Active = under 50% inhibition at 10 µM
[6] = DRUGMATRIX: Interleukin IL-1 radioligand binding (ligand: [125I] interleukin 1beta); format: cell membranes, Membrane; details: nih3t3; Not Active = under 50% inhibition at 10 µM
[7] = biological target: T3, Cysteinyl leukotriene receptor 1 (Homo sapiens, UniProt Q9Y271); format: cell membranes, CHO-K1, Membrane; details: cho-k1; note: in other assays of this panel Not Active means under 50% inhibition at 10 µM
T3 sequence (Q9Y271 whole entry): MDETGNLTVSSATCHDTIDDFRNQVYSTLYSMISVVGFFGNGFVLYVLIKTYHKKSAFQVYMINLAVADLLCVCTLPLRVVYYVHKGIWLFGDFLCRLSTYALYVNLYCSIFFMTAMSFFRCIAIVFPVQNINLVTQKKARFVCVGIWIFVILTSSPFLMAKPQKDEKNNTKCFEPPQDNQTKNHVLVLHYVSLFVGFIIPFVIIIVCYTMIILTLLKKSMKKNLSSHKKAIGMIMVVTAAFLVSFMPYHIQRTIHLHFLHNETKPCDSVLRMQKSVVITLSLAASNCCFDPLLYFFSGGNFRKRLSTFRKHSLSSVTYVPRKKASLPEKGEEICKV

[8] = biological target: T4, Amine oxidase [flavin-containing] A (Homo sapiens, UniProt P21397); assay: DRUGMATRIX: Monoamine Oxidase MAO-A enzyme inhibition (substrate: Kynuramine); parameters: species or system BTI-TN-5B1-4; details: bti-tn-5b1-4; Not Active = under 50% inhibition at 10 µM
T4 sequence (P21397 whole entry): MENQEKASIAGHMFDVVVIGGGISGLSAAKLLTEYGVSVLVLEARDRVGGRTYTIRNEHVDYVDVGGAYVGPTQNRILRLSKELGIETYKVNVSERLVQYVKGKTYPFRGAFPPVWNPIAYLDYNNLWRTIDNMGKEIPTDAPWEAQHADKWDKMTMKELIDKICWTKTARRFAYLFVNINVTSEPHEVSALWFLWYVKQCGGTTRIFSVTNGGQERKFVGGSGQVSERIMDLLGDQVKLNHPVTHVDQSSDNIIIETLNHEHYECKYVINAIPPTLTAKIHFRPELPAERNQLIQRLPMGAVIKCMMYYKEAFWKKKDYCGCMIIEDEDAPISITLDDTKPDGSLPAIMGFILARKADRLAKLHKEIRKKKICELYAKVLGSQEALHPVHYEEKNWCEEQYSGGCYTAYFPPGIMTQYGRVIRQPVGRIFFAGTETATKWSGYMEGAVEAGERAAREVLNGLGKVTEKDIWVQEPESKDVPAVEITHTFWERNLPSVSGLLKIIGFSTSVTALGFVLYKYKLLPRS

[9] = DRUGMATRIX: Phorbol Ester radioligand binding (ligand: [3H] PDBu); format: cell membranes, Mus musculus, ICR, Brain, Membrane; details: Not Active = under 50% inhibition at 10 µM
[10] = DRUGMATRIX: Phosphodiesterase PDE3 enzyme inhibition (substrate: [3H]cAMP + cAMP); format: tissue-based, Homo sapiens; details: platelet; Not Active = under 50% inhibition at 10 µM
[11] = DRUGMATRIX: Platelet-Derived Growth Factor (PDGF) radioligand binding (ligand: [125I] PDGF); format: cell-based; details: nih3t3; Not Active = under 50% inhibition at 10 µM
[12] = biological target: T5, Neutrophil elastase (Homo sapiens, UniProt P08246); format: tissue-based;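 note: inhibition of neutrophil elastase enzyme activity, measured with a p-nitroanilide-linked peptide substrate; in other assays of this panel Not Active means under 50% inhibition at 10 µM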
T5 sequence (P08246 whole entry): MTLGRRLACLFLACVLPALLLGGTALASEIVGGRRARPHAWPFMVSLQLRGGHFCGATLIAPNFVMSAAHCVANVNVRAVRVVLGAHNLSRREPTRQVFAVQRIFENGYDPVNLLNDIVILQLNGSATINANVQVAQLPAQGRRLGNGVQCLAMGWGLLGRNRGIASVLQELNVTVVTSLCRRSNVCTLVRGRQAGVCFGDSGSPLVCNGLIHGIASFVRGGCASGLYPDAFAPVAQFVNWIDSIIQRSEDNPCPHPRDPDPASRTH

[13] = DRUGMATRIX: Purinergic P2X radioligand binding (ligand: [3H] alpha, beta-Methylene-ATP); format: cell membranes, Oryctolagus cuniculus, New Zealand albino, Urinary bladder, Membrane; details: Not Active = under 50% inhibition at 10 µM
[14] = biological target: Estrogen receptor beta (Homo sapiens, UniProt Q92731); details: sf9; note: in other assays of this panel Not Active means under 50% inhibition at 10 µM
Chain of Estrogen receptor beta (Q92731 whole entry): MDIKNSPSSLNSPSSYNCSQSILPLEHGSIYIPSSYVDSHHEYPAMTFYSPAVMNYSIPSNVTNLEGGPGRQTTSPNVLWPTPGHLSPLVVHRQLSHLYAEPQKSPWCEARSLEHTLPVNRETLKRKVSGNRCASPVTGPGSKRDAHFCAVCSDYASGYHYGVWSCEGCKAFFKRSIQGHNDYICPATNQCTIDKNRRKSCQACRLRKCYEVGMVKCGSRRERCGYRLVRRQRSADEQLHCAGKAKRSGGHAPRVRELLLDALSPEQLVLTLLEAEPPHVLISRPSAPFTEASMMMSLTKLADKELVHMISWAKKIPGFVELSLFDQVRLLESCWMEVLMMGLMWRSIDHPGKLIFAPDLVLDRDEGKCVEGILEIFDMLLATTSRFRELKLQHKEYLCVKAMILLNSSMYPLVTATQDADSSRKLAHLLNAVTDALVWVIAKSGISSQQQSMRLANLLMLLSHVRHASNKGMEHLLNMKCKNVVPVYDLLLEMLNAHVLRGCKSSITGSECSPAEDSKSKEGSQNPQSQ

Chain of D(1A) dopamine receptor (P21728 whole entry): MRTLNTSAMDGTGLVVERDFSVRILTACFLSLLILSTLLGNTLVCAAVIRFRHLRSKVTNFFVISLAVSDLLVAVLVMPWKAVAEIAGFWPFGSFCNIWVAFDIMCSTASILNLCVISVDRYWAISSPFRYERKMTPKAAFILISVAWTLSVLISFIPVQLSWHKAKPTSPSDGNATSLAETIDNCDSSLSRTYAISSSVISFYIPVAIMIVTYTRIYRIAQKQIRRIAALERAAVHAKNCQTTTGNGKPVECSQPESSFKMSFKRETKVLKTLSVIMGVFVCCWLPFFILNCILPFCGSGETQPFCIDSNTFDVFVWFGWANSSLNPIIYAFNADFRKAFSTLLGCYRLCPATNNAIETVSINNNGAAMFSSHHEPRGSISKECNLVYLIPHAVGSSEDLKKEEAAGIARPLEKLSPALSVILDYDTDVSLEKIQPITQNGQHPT

OXALIPLATIN
Not Active: IC50 [1] | Ki [1] | IC50 [2] | Ki [2] | IC50 [3] | Ki [3] | IC50 [4] | Ki [4] | IC50 [5] | Ki [5] | IC50 [6] | Ki [6] | IC50 [7] | Ki [7] | IC50 [8] | Ki [8] | IC50 [9] | Ki [9] | IC50 [10] | Ki [10] | IC50 [11] | Ki [11] | IC50 [12] | Ki [12] | IC50 [13] | Ki [13] | IC50 [14] | Ki [14]
